PMC5688156, “The natural product carolacton inhibits folate-dependent C1 metabolism by targeting FolD/MTHFD” (Nature Communications, 2017)
Where two headings read alike, the source gives them in different places.

Columns and labels:
[1] = biological target: T1, spFolD (Streptococcus pneumoniae serotype 4, UniProt Q97RI9); test: spFolD dehydrogenase (DH) enzyme assay; format: biochemical, S. pneumoniae
T1 construct: His-tag (TEV-cleavable, vector pHis-TEV); made in house; host or cells: E. coli BL21 (DE3)
Experimental: (§1) (6R,S)-5,10-Methylene-5,6,7,8-tetrahydrofolic acid ((6R,S)-5,10-CH2-THF) calcium salt and (6R,S)-5,10-Methenyl-5,6,7,8-tetrahydrofolic acid ((6R,S)-5,10-CH=THF) chloride were purchased from Schircks Laboratories (Bauma, Switzerland) and used as substrates for FolD dehydrogenase and cyclohydrolase enzyme assays, respectively. Only the R-isomer, which accounts for 50% of (6R,S)-5,10-CH2-THF and (6R,S)-5,10-CH=THF, respectively, is used by the enzyme. (6R,S)-5,10-CH2-THF was dissolved in N2-spargeled basic buffer (50 mM Tris-HCl (pH 8.0), 100 mM β-mercaptoethanol) as described by Varshney et al.[25]. (6R,S)-5,10-CH=THF was dissolved in DMSO as a 100 mM stock solution.
Because FolD is a bifunctional enzyme, dehydrogenase and cyclohydrolase activities were determined for FolD enzyme kinetics, respectively. The dehydrogenase activity of FolD was assayed for its substrate 5,10-CH2-THF and cofactor NADP^+ (in the case of MTHFD2, NAD^+ was used as the cofactor) based on monitoring the formation of 5,10-CH=THF, while the cyclohydrolase activity of FolD was determined for its substrate 5,10-CH=THF by monitoring the hydrolysis of […]. The enzyme kinetics for the dehydrogenase activity of all FolDs except hsMTHFD1_DC were determined at 30 °C in 50 mM Tris-HCl (pH 7.5), 30 mM β-mercaptoethanol. The hsMTHFD1_DC dehydrogenase activity was measured in 25 mM MOPS (pH 7.3), 30 mM β-mercaptoethanol at 30 °C. To measure the enzyme kinetic constants for 5,10-CH2-THF, for example in the case of ecFolD, the NADP concentration was fixed at 1 mM and the concentration of 5,10-CH2-THF varied from 5 to 1500 μM (R-isomer). Similarly, to measure the kinetic constants of ecFolD for NADP^+, the concentration of 5,10-CH2-THF (R-isomer) was fixed at 1 mM and the concentration of NADP^+ varied from 10 to 1500 μM. For different FolDs, the varied concentration range of substrates could be different. […] To monitor the formation of 5,10-CH=THF, the absorbance of the reaction mixture was monitored at 350 nm in micro UV cuvettes (BRAND, Essex, Connecticut, USA). The concentration of 5,10-CH=THF produced in the reaction was determined using an extinction co-efficient of 0.0249 μM^−1 cm^−1. […] The consumption of 5,10-CH=THF was measured by recording the absorbance of the reactions at 355 nm using the TECAN Infinite 200 PRO equipped with a monochromator. […] The inhibition constants (K i) of carolacton on FolD were determined by measuring the apparent K m when adding certain amounts of carolacton to the enzyme reactions. […] To compare the inhibition effects of carolacton between the different FolDs, the half maximal inhibitory concentration (IC50) of carolacton on the same amount of enzyme was determined for FolDs involved in this study. […]

[2] = biological target: T2, hsMTHFD1_DC (Homo sapiens, UniProt P11586); test: hsMTHFD1_DC cyclohydrolase (CYH) enzyme assay; format: biochemical; settings: hsMTHFD1 DC301
T2 construct: hsMTHFD1 DC301; His-tag (TEV-cleavable, vector pHis-TEV); made in house; host or cells: E. coli BL21 (DE3)
T2 sequence (P11586 2-291 limits assumed): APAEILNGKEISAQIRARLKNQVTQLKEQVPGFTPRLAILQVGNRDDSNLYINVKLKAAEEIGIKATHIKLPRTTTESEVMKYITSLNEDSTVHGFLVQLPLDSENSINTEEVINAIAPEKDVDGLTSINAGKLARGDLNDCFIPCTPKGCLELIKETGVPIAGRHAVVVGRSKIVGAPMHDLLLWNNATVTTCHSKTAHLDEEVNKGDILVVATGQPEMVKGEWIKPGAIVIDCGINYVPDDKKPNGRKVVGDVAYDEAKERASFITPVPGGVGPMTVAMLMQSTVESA
Experimental: as §1
Because FolD is a bifunctional enzyme, dehydrogenase and cyclohydrolase activities were determined for FolD enzyme kinetics, respectively. The dehydrogenase activity of FolD was assayed for its substrate 5,10-CH2-THF and cofactor NADP^+ (in the case of MTHFD2, NAD^+ was used as the cofactor) based on monitoring the formation of 5,10-CH=THF, while the cyclohydrolase activity of FolD was determined for its substrate 5,10-CH=THF by monitoring the hydrolysis of […]. The enzyme kinetics for the dehydrogenase activity of all FolDs except hsMTHFD1_DC were determined at 30 °C in 50 mM Tris-HCl (pH 7.5), 30 mM β-mercaptoethanol. The hsMTHFD1_DC dehydrogenase activity was measured in 25 mM MOPS (pH 7.3), 30 mM β-mercaptoethanol at 30 °C. […] To monitor the formation of 5,10-CH=THF, the absorbance of the reaction mixture was monitored at 350 nm in micro UV cuvettes (BRAND, Essex, Connecticut, USA). The concentration of 5,10-CH=THF produced in the reaction was determined using an extinction co-efficient of 0.0249 μM^−1 cm^−1. […] The consumption of 5,10-CH=THF was measured by recording the absorbance of the reactions at 355 nm using the TECAN Infinite 200 PRO equipped with a monochromator. […] The inhibition constants (K i) of carolacton on FolD were determined by measuring the apparent K m when adding certain amounts of carolacton to the enzyme reactions. […]

[3] = tested on: HCT-116; test: Cytotoxicity screening, HCT-116 (MTT); format: cell-based, human; settings: for EC50: 5 d treatment, MTT
Experimental: Half maximal effective concentrations (EC50) on human cancer cell lines were determined as described elsewhere. Human cancer cell lines were maintained as recommended by the depositor (German Collection of Microorganisms and Cell Cultures, DSMZ) and were treated for 5 d with carolacton in serial dilution. The viability of adherent cell types, HCT-116 (ACC 581), KB-3.1 (ACC-158) and KB-V.1 (ACC-149) was assessed by the addition of MTT tetrazolium salt and absorbance measurement at 570 nm. Histiocytic lymphoma U-937 cells (ACC-5) were maintained in RPMI 1640 medium and transferred into folate-free medium prior to the assay. Cell viability was determined by measuring alamar blue fluorescence emission at 590 nm. The values were referenced and EC50 values were determined by sigmoidal curve fitting. The cell lines KB-3.1 and KB-V.1 are originally derived from HeLa, whereas the latter is an MDR subclone of KB-3.1. They were used to directly compare the activity of carolacton on an mdr1 overexpressing and a sensitive cell line.

T1 sequence (Q97RI9 whole entry): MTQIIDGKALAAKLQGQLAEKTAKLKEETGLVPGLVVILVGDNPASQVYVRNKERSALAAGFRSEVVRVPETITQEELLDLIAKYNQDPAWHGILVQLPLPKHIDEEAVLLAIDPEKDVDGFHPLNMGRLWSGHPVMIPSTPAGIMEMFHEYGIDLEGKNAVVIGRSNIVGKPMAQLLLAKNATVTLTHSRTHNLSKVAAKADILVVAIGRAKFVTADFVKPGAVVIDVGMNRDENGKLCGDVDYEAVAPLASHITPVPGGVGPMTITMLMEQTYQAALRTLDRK

With CO[C@H](CC(=O)O)[C@@H](C)C(=O)[C@H](C)/C=C(\C)[C@H]1OC(=O)[C@H](O)[C@H](O)/C=C/[C@H](C)CCC[C@@H]1C [carolacton] the IC50 ([1]; 10 nM enzyme, read-out: IC50, carolacton inhibition on DH activity) was 36.8 nM, the IC80 ([1]; 10 nM enzyme, read-out: IC80, carolacton inhibition on DH activity) was 169 nM and the Ki ([1]; vs 5,10-CH2-THF, read-out: Ki (5,10-CH2-THF), carolacton inhibition on DH activity) was 42.2 nM. The Ki ([1]; vs NADP+, read-out: Ki (NADP+), carolacton inhibition on DH activity) was 34.2 nM, the IC50 ([2]; 5 nM enzyme, read-out: IC50, carolacton inhibition on CYH activity) was 19.4 nM and the IC80 ([2]; 5 nM enzyme, read-out: IC80, carolacton inhibition on CYH activity) was 67.5 nM. The Ki ([2]; vs 5,10-CH=THF, read-out: Ki (5,10-CH=THF), carolacton inhibition on CYH activity) was 20.6 nM, the EC50 [3] was 24600 ± 800 nM and the EC50 ([3]; Homo sapiens, HCT-116, 120 h) was 25000 nM. It also gave a Maximum inhibition ([3]; inhibition of cell growth, 5 d) greater than 80%.
